Target: GLP-1 Receptor (Homo sapiens, UniProt P43220)
Test: GLP-1R agonist cAMP stimulation assay (HEK293/GLP1R/CRE-LUC cells, cAMP dynamic 2 Kit)
Assay type: cell-based
Settings: HEK293/CRE-Luc cell line stably expressing the GLP-1 Receptor, 30 min at 37° C.
Method in brief: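 cAMP measured by HTRF competition (d2-labelled cAMP with cryptate antibody, 1 h, room temperature, protected from light). Before that, GLP1R/CRE-Luc HEK293 cells (1000/well) were exposed for 30 min at 37 °C to half-log compound dilutions in DPBS containing IBMX 0.5 mM and BSA 0.1%.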

Sequence of GLP-1 Receptor (P43220 24-463, species assumed): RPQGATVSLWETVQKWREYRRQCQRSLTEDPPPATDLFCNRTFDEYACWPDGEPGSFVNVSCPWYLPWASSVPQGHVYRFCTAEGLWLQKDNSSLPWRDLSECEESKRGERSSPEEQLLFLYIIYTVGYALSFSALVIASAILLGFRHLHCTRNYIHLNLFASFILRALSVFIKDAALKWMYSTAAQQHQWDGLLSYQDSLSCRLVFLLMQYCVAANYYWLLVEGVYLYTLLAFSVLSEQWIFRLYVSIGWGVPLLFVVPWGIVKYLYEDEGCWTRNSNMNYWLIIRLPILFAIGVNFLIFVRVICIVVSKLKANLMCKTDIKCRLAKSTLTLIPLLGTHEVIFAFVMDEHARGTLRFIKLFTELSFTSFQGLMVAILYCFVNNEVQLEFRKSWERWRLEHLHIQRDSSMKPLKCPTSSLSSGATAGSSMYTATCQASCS

EC50 [nM]	SMILES
0.3	CC1(c2ccc(Cl)cc2F)Oc2ccc(F)c(C3CCN(Cc4nc5cc(-c6nnc(C(F)(F)F)[nH]6)ncc5n4C[C@@H]4CCO4)CC3)c2O1 (stereo partly drawn) [Compound 458a, 4-[2-(4-chloro-2-fluorophenyl)-5-fluoro-2-methyl-2H-1,3-benzodioxol-4-yl]-1-[(3-{[(2S)-oxetan-2-yl]methyl}-6-[5-(trifluoromethyl)-4H-1,2,4-triazol-3-yl]-3H-imidazo[4,5-c]pyridin-2-yl)methyl]piperidine]
0.0088	CC1(c2ccc(Cl)cc2F)Oc2c(F)ccc(C3CCN(Cc4nc5cc(-c6nnc(C(F)(F)F)[nH]6)ncc5n4C[C@@H]4CCO4)CC3)c2O1 (stereo partly drawn) [Compound 459a, 4-[2-(4-chloro-2-fluorophenyl)-7-fluoro-2-methyl-2H-1,3-benzodioxol-4-yl]-1-[(3-{[(2S)-oxetan-2-yl]methyl}-6-[5-(trifluoromethyl)-4H-1,2,4-triazol-3-yl]-3H-imidazo[4,5-c]pyridin-2-yl)methyl]piperidine]
0.15	O=c1[nH]c(-c2cc3nc(CN4CCC(c5ccnc(OCc6ccc(Cl)cc6F)n5)CC4)n(C[C@@H]4CCO4)c3cn2)no1 [Compound 460a, 3-{2-[(4-{2-[(4-chloro-2-fluorophenyl)methoxy]pyrimidin-4-yl}piperidin-1-yl)methyl]-3-{[(2S)-oxetan-2-yl]methyl}-3H-imidazo[4,5-c]pyridin-6-yl}-4,5-dihydro-1,2,4-oxadiazol-5-one]
0.23	C[C@]1(c2ccc(Cl)cn2)Oc2cccc(C3CCN(Cc4nc5cc(-c6nnn[nH]6)nnc5n4C[C@@H]4CCO4)CC3)c2O1 [Compound 461a, 5-chloro-2-[(2S)-2-methyl-4-{1-[(7-{[(2S)-oxetan-2-yl]methyl}-3-(1H-1,2,3,4-tetrazol-5-yl)-7H-imidazo[4,5-c]pyridazin-6-yl)methyl]piperidin-4-yl}-2H-1,3-benzodioxol-2-yl]pyridine]
0.045	C[C@]1(c2ccc(Cl)cn2)Oc2cccc(C3CCN(Cc4nc5cc(-c6nnc(C(F)(F)F)[nH]6)nnc5n4C[C@@H]4CCO4)CC3)c2O1 [Compound 462a, 5-chloro-2-[(2S)-2-methyl-4-{1-[(7-{[(2S)-oxetan-2-yl]methyl}-3-[5-(trifluoromethyl)-4H-1,2,4-triazol-3-yl]-7H-imidazo[4,5-c]pyridazin-6-yl)methyl]piperidin-4-yl}-2H-1,3-benzodioxol-2-yl]pyridine]
0.35	C[C@]1(c2ccc(Cl)cn2)Oc2cccc(C3CCN(Cc4nc5cc(-c6noc(=O)[nH]6)nnc5n4C[C@@H]4CCO4)CC3)c2O1 [Compound 463a, 3-[6-({4-[(2S)-2-(5-chloropyridin-2-yl)-2-methyl-2H-1,3-benzodioxol-4-yl]piperidin-1-yl}methyl)-7-{[(2S)-oxetan-2-yl]methyl}-7H-imidazo[4,5-c]pyridazin-3-yl]-4,5-dihydro-1,2,4-oxadiazol-5-one]
0.76	C[C@]1(c2ccc(Cl)cn2)Oc2cccc(C3CCN(Cc4nc5cc(C(=O)O)nnc5n4C[C@@H]4CCO4)CC3)c2O1 [Compound 464a, 6-({4-[(2S)-2-(5-chloropyridin-2-yl)-2-methyl-2H-1,3-benzodioxol-4-yl]piperidin-1-yl}methyl)-7-{[(2S)-oxetan-2-yl]methyl}-7H-imidazo[4,5-c]pyridazine-3-carboxylic acid]
0.3	Fc1cc(Cl)ccc1C1COc2cccc(C3CCN(Cc4nc5cc(-c6nnc(C(F)(F)F)[nH]6)nnc5n4C[C@@H]4CCO4)CC3)c2O1 (stereo partly drawn) [Compound 465a, 4-[3-(4-chloro-2-fluorophenyl)-2,3-dihydro-1,4-benzodioxin-5-yl]-1-[(7-{[(2S)-oxetan-2-yl]methyl}-3-[5-(trifluoromethyl)-4H-1,2,4-triazol-3-yl]-7H-imidazo[4,5-c]pyridazin-6-yl)methyl]piperidine]
0.19	CO[C@H](C)Cn1c(CN2CCC(c3cccc4c3O[C@@](C)(c3ccc(Cl)cn3)O4)CC2)nc2cc(-c3noc(=O)[nH]3)ncc21 [Compound 466a, 3-[2-({4-[(2S)-2-(5-chloropyridin-2-yl)-2-methyl-2H-1,3-benzodioxol-4-yl]piperidin-1-yl}methyl)-3-[(2R)-2-methoxypropyl]-3H-imidazo[4,5-c]pyridin-6-yl]-4,5-dihydro-1,2,4-oxadiazol-5-one]
0.076	CC1(c2ccc(Cl)nc2)Oc2cccc(C3CCN(Cc4nc5cc(-c6nnc(C(F)(F)F)[nH]6)ncc5n4C[C@@H]4CCO4)CC3)c2O1 (stereo partly drawn) [Compound 467a, 2-chloro-5-(2-methyl-4-{1-[(3-{[(2S)-oxetan-2-yl]methyl}-6-[5-(trifluoromethyl)-4H-1,2,4-triazol-3-yl]-3H-imidazo[4,5-c]pyridin-2-yl)methyl]piperidin-4-yl}-2H-1,3-benzodioxol-2-yl)pyridine]
0.53	Cc1nnc(-c2cc3nc(CN4CCC(c5cccc6c5OC(c5ccc(Cl)cc5F)CO6)CC4)n(C[C@@H]4CCO4)c3cn2)[nH]1 (stereo partly drawn) [Compound 468a, 4-[3-(4-chloro-2-fluorophenyl)-2,3-dihydro-1,4-benzodioxin-5-yl]-1-{[6-(5-methyl-4H-1,2,4-triazol-3-yl)-3-{[(2S)-oxetan-2-yl]methyl}-3H-imidazo[4,5-c]pyridin-2-yl]methyl}piperidine]
0.087	N#Cc1ccc(COc2cc(N3CCN(Cc4nc5cc(-c6nnc(C(F)(F)F)[nH]6)ncc5n4C[C@@H]4CCO4)CC3)ccc2F)c(F)c1 [Compound 469a, 3-fluoro-4-[(2-fluoro-5-{4-[(3-{[(2S)-oxetan-2-yl]methyl}-6-[5-(trifluoromethyl)-4H-1,2,4-triazol-3-yl]-3H-imidazo[4,5-c]pyridin-2-yl)methyl]piperazin-1-yl}phenoxy)methyl]benzonitrile]
0.22	Fc1cc(Cl)ccc1COc1cc(C2CCN(Cc3nc4cc(-c5nnc(C(F)(F)F)[nH]5)ncc4n3C[C@@H]3CCO3)CC2)ccc1F [Compound 470a, 4-{3-[(4-chloro-2-fluorophenyl)methoxy]-4-fluorophenyl}-1-[(3-{[(2S)-oxetan-2-yl]methyl}-6-[5-(trifluoromethyl)-4H-1,2,4-triazol-3-yl]-3H-imidazo[4,5-c]pyridin-2-yl)methyl]piperidine]
0.11	N#Cc1ccc(COc2cc(C3CCN(Cc4nc5cc(-c6nnc(C(F)(F)F)[nH]6)ncc5n4C[C@@H]4CCO4)CC3)ccc2F)c(F)c1 [Compound 471a, 3-fluoro-4-[(2-fluoro-5-{1-[(3-{[(2S)-oxetan-2-yl]methyl}-6-[5-(trifluoromethyl)-4H-1,2,4-triazol-3-yl]-3H-imidazo[4,5-c]pyridin-2-yl)methyl]piperidin-4-yl}phenoxy)methyl]benzonitrile]
0.012	Fc1cc(Cl)ccc1COc1nc(C2CCN(Cc3nc4cc(-c5nnc(C(F)(F)F)[nH]5)ncc4n3C[C@@H]3CCO3)CC2)ccc1F [Compound 472a, 2-[(4-chloro-2-fluorophenyl)methoxy]-3-fluoro-6-{1-[(3-{[(2S)-oxetan-2-yl]methyl}-6-[5-(trifluoromethyl)-4H-1,2,4-triazol-3-yl]-3H-imidazo[4,5-c]pyridin-2-yl)methyl]piperidin-4-yl}pyridine]
0.46	CO[C@H](C)Cn1c(CN2CCC(c3cccc4c3O[C@@](C)(c3ccc(Cl)cn3)O4)CC2)nc2cc(-c3nnc(C(F)(F)F)[nH]3)nnc21 [Compound 473a, 5-chloro-2-[(2S)-4-[1-({7-[(2R)-2-methoxypropyl]-3-[5-(trifluoromethyl)-4H-1,2,4-triazol-3-yl]-7H-imidazo[4,5-c]pyridazin-6-yl}methyl)piperidin-4-yl]-2-methyl-2H-1,3-benzodioxol-2-yl]pyridine]
1.5	C[C@]1(c2ccc(Cl)cn2)Oc2cccc(C3CCN(Cc4nc5cc(-c6nnc(C(F)(F)F)[nH]6)nnc5n4C[C@H]4CCOC4)CC3)c2O1 [Compound 474a, 5-chloro-2-[(2S)-2-methyl-4-{1-[(7-{[(3R)-oxolan-3-yl]methyl}-3-[5-(trifluoromethyl)-4H-1,2,4-triazol-3-yl]-7H-imidazo[4,5-c]pyridazin-6-yl)methyl]piperidin-4-yl}-2H-1,3-benzodioxol-2-yl]pyridine]
0.41	C[C@]1(c2ccc(Cl)cc2F)Oc2cccc(C3CCN(Cc4nc5cc(-c6nnc(C(F)(F)F)[nH]6)nnc5n4C[C@H]4CCOC4)CC3)c2O1 [Compound 475a, 4-[(2S)-2-(4-chloro-2-fluorophenyl)-2-methyl-2H-1,3-benzodioxol-4-yl]-1-[(7-{[(3R)-oxolan-3-yl]methyl}-3-[5-(trifluoromethyl)-4H-1,2,4-triazol-3-yl]-7H-imidazo[4,5-c]pyridazin-6-yl)methyl]piperidine]
0.25	C[C@H](Cn1c(CN2CCC(c3cccc4c3O[C@@](C)(c3ccc(Cl)cn3)O4)CC2)nc2cc(-c3nnc(C(F)(F)F)[nH]3)ncc21)OC(F)F [Compound 476a, 5-chloro-2-[(2S)-4-[1-({3-[(2R)-2-(difluoromethoxy)propyl]-6-[5-(trifluoromethyl)-4H-1,2,4-triazol-3-yl]-3H-imidazo[4,5-c]pyridin-2-yl}methyl)piperidin-4-yl]-2-methyl-2H-1,3-benzodioxol-2-yl]pyridine]
0.98	Cc1nnc(-c2cc3nc(CN4CCC(c5cccc6c5O[C@@](C)(c5ccc(Cl)cn5)O6)CC4)n(C[C@@H]4CCO4)c3nn2)[nH]1 [Compound 477a, 5-chloro-2-[(2S)-2-methyl-4-(1-{[3-(5-methyl-4H-1,2,4-triazol-3-yl)-7-{[(2S)-oxetan-2-yl]methyl}-7H-imidazo[4,5-c]pyridazin-6-yl]methyl}piperidin-4-yl)-2H-1,3-benzodioxol-2-yl]pyridine]
0.1	Fc1cc(Cl)ccc1COc1cc(C2CCN(Cc3nc4cc(-c5nnc(C(F)(F)F)[nH]5)ncc4n3C[C@@H]3CCO3)CC2F)ccc1F (stereo partly drawn) [Compound 478a, (3,4-trans)-4-{3-[(4-chloro-2-fluorophenyl)methoxy]-4-fluorophenyl}-3-fluoro-1-[(3-{[(2S)-oxetan-2-yl]methyl}-6-[5-(trifluoromethyl)-4H-1,2,4-triazol-3-yl]-3H-imidazo[4,5-c]pyridin-2-yl)methyl]piperidine]

From patent publication US20230391760A1, “HETEROCYCLIC GLP-1 AGONISTS” (Gasherbrum Bio, Inc., priority 2020, published 2023)
